The record followed here is patent publication US12029748B2, “Synergistic composition for maintenance of healthy balance of microflora” (KIMBERLY-CLARK WORLDWIDE, INC., priority 2017, dated 2024).

Data set [1] can be described thus: Solubility screening of the composition (visual precipitates or turbidity). As to conditions: for Solubility of the composition, 0.50%: nitrogen compound 0.50 wt/vol % with 1.0 wt/vol % α methyl-D glucoside in medium; for Solubility of the composition, 1.00%: nitrogen compound 1.00 wt/vol % with 1.0 wt/vol % α methyl-D glucoside in medium. It counts as physicochemical. From the text:
Each composition in Table 1 went through initial screening measures of solubility and initial pH (“I pH”). […] When a specific concentration of a nitrogen containing compound was insoluble, the initial and final pH (“F pH”) of the combined composition was not measured and accordingly are each marked as “NM.” Additionally, initial pH of the composition was checked as a screening measure. The initial pH was marked as either Low (“L”), High (“H”), or Pass (“P”). A Low initial pH corresponds to an initial pH being less than 5.5, a High initial pH corresponds to an initial pH being greater than 6.5, and a Pass initial pH corresponds to the pH being at or between 5.5-6.5. […] As part of the Therapeutic Effect Protocol, a final pH was also measured after the compositions that were tested against the Lactobacillus and E. coli.
All of the ingredients in Table 2 were combined and the pH was adjusted to 6.5. […] To evaluate the effect of various nitrogen containing therapeutic agents on the growth of bacteria, the LAPT-g media, prepared as described above, was supplemented with various nitrogen containing compound therapeutic agents to a final test concentration between 0.1 and 1.0%. As initial screening measures, solubility and initial pH of each composition were checked. If a specific composition was insoluble (as detected by visual indication of precipitates or turbidity), then no further therapeutic efficacy testing was undertaken on that composition. Additionally, if the initial pH of the composition was below 5.5 (“Low”) or was above 6.5 (“High”), then no further therapeutic efficacy testing was undertaken on that composition.

The test system of data set [2] is L. crispatus and E. coli. The data set can be described thus: Therapeutic Effect Protocol: L. crispatus / E. coli co-culture, ratio after 36 hours. It counts as cell-based, Lactobacillus crispatus; E. coli. As to conditions: for Therapeutic Efficacy Results (Lactobacillus/E. coli) 0.10%: nitrogen compound 0.10 wt/vol % with 1.0 wt/vol % α methyl-D glucoside (10:1); for Therapeutic Efficacy Results (Lactobacillus/E. coli) 0.10% / Therapeutic Efficacy Results (Lactobacillus/E. coli) 0.50% / Therapeutic Efficacy Results (Lactobacillus/E. coli) 1.00%: 36 hours anaerobic co-culture, 37° C.; for Therapeutic Efficacy Results (Lactobacillus/E. coli) 0.50%: nitrogen compound 0.50 wt/vol % with 1.0 wt/vol % α methyl-D glucoside (2:1); for Therapeutic effect when ratio α methyl-D glucoside : nitrogen compound is at least about 2:1, but not at 1:1: ratio at least about 2:1, not 1:1; for Therapeutic Efficacy Results (Lactobacillus/E. coli) 1.00%: nitrogen compound 1.00 wt/vol % with 1.0 wt/vol % α methyl-D glucoside (1:1). A digest of the protocol:
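L. crispatus and E. coli were mixed 1,000:1 (10^5-10^6 and 100-1,000 CFU per 5 mL tube) in LAPT-g medium at pH 6.5, containing 1% α-methyl-D-glucoside plus nitrogen compound at 0.1-1% w/v, in duplicate. After 36 h anaerobic incubation at 37 °C, each species was counted by selective plating (MRS anaerobic, TSA aerobic), and the L. crispatus:E. coli ratio and final pH were recorded.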

Data set [3] in a line: Initial pH screening of the composition. It is filed as physicochemical. As to conditions: for I pH (initial pH), 0.10%: nitrogen compound 0.10 wt/vol % with 1.0 wt/vol % α methyl-D glucoside in medium; for I pH (initial pH), 0.50%: nitrogen compound 0.50 wt/vol % with 1.0 wt/vol % α methyl-D glucoside in medium; for I pH (initial pH), 1.00%: nitrogen compound 1.00 wt/vol % with 1.0 wt/vol % α methyl-D glucoside in medium. A digest of the protocol: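 Compounds were added to LAPT-g medium (pH adjusted to 6.5) at a final 0.1-1.0%. Solubility was judged visually by precipitate or turbidity, and insoluble compositions got no pH measurement. Initial pH was scored Low (<5.5), High (>6.5) or Pass (5.5-6.5), and only soluble Pass compositions went on to efficacy testing.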

In the case of `Nc1ncnc2nc[nH]c12` [Adenine], the “Solubility of the composition, 0.10%” value in data set [1] (nitrogen compound 0.10 wt/vol % with 1.0 wt/vol % α methyl-D glucoside in medium) is “Insol”. Besides, in data set [1], the “Solubility of the composition, 0.50%” value is reported as “Insol” and the “Solubility of the composition, 1.00%” value is given as “Insol”.
Regarding `Nc1ncnc2c1ncn2[C@@H]1O[C@H](CO)[C@@H](O)[C@H]1O` [Adenosine], in data set [2], the “Therapeutic Efficacy Results (Lactobacillus/E. coli) 0.10%” value is recorded as <100 and the “Therapeutic Efficacy Results (Lactobacillus/E. coli) 0.50%” value came to 0.97. Besides, the “Therapeutic effect when ratio α methyl-D glucoside : nitrogen compound is at least about 2:1, but not at 1:1” value in data set [2] (with α methyl-D glucoside) is on record as “provided a therapeutic effect”. Also, the “Solubility of the composition, 1.00%” value in data set [1] is “Insol”. Further, in data set [3], the “I pH (initial pH), 0.10%” value is “P (a Pass initial pH corresponds to the pH being at or between 5.5-6.5)” and the “I pH (initial pH), 0.50%” value is given as “P (a Pass initial pH corresponds to the pH being at or between 5.5-6.5)”.
For `NC(=O)NC1NC(=O)NC1=O` (stereo not shown) [Allantoin], in data set [2], the “Therapeutic Efficacy Results (Lactobacillus/E. coli) 0.10%” value came out at 0.9 and the “Therapeutic Efficacy Results (Lactobacillus/E. coli) 0.50%” value is 1.37. The “Solubility of the composition, 1.00%” value in data set [1] was “Insol”. For the same compound, in data set [3], the “I pH (initial pH), 0.10%” value is “P (a Pass initial pH corresponds to the pH being at or between 5.5-6.5)” and the “I pH (initial pH), 0.50%” value is given as “P (a Pass initial pH corresponds to the pH being at or between 5.5-6.5)”.
`NC(=O)C[C@H](N)C(=O)O` [L-Asparagine]: in data set [2], the “Therapeutic Efficacy Results (Lactobacillus/E. coli) 0.10%” value is listed as 1.12 and the “Therapeutic Efficacy Results (Lactobacillus/E. coli) 0.50%” value came to 1.72. Besides, in data set [1], the “Solubility of the composition, 1.00%” value was “Insol”. Also, in data set [3], the “I pH (initial pH), 0.10%” value was “P (a Pass initial pH corresponds to the pH being at or between 5.5-6.5)” and the “I pH (initial pH), 0.50%” value is “P (a Pass initial pH corresponds to the pH being at or between 5.5-6.5)”.
Take `N[C@@H](Cc1c[nH]cn1)C(=O)O` [L-Histidine]: in data set [2], the “Therapeutic Efficacy Results (Lactobacillus/E. coli) 0.10%” value is on record as 1.11. In data set [1], the “Solubility of the composition, 0.50%” value is “Insol” and the “Solubility of the composition, 1.00%” value is reported as “Insol”. Also, the “I pH (initial pH), 0.10%” value in data set [3] is “P (a Pass initial pH corresponds to the pH being at or between 5.5-6.5)”.
Take `CC[C@H](C)[C@H](N)C(=O)O` [L-Isoleucine]: the “Therapeutic Efficacy Results (Lactobacillus/E. coli) 0.10%” value in data set [2] came out at 1.51. Moreover, in data set [1], the “Solubility of the composition, 0.50%” value is recorded as “Insol” and the “Solubility of the composition, 1.00%” value is recorded as “Insol”. In data set [3], the “I pH (initial pH), 0.10%” value is recorded as “P (a Pass initial pH corresponds to the pH being at or between 5.5-6.5)”.
Take `CC(C)C[C@H](N)C(=O)O` [L-Leucine]: in data set [2], the “Therapeutic Efficacy Results (Lactobacillus/E. coli) 0.10%” value came out at 2.9 and the “Therapeutic Efficacy Results (Lactobacillus/E. coli) 0.50%” value came out at 0.24. The “Therapeutic effect when ratio α methyl-D glucoside : nitrogen compound is at least about 2:1, but not at 1:1” value in data set [2] (with α methyl-D glucoside) was “provided a therapeutic effect”. Further, in data set [1], the “Solubility of the composition, 1.00%” value is given as “Insol”. Moreover, in data set [3], the “I pH (initial pH), 0.10%” value is “P (a Pass initial pH corresponds to the pH being at or between 5.5-6.5)” and the “I pH (initial pH), 0.50%” value was “P (a Pass initial pH corresponds to the pH being at or between 5.5-6.5)”.
Turning to `N[C@@H](Cc1ccccc1)C(=O)O` [L-Phenylalanine], the “Therapeutic Efficacy Results (Lactobacillus/E. coli) 0.10%” value in data set [2] is on record as 0.09. For the same compound, in data set [1], the “Solubility of the composition, 0.50%” value was “Insol” and the “Solubility of the composition, 1.00%” value is on record as “Insol”. In addition, in data set [3], the “I pH (initial pH), 0.10%” value is “P (a Pass initial pH corresponds to the pH being at or between 5.5-6.5)”.
`N[C@@H](Cc1c[nH]c2ccccc12)C(=O)O` [L-Tryptophan]: in data set [2], the “Therapeutic Efficacy Results (Lactobacillus/E. coli) 0.10%” value turned out to be 0.66 and the “Therapeutic Efficacy Results (Lactobacillus/E. coli) 0.50%” value worked out at 0.06. Also, the “Solubility of the composition, 1.00%” value in data set [1] is recorded as “Insol”. Moreover, in data set [3], the “I pH (initial pH), 0.10%” value is listed as “P (a Pass initial pH corresponds to the pH being at or between 5.5-6.5)” and the “I pH (initial pH), 0.50%” value is on record as “P (a Pass initial pH corresponds to the pH being at or between 5.5-6.5)”.
As for `CC(=O)N[C@@H]1C(O)O[C@H](CO)[C@@H](O)[C@@H]1O` (stereo partly drawn) [N-Acetyl-D-Mannosamine], in data set [2], the “Therapeutic Efficacy Results (Lactobacillus/E. coli) 0.10%” value is given as 0.854, the “Therapeutic Efficacy Results (Lactobacillus/E. coli) 0.50%” value is on record as 100 and the “Therapeutic Efficacy Results (Lactobacillus/E. coli) 1.00%” value came to 0.02. Moreover, the “Therapeutic effect when ratio α methyl-D glucoside : nitrogen compound is at least about 2:1, but not at 1:1” value in data set [2] (with α methyl-D glucoside) is recorded as “provided a therapeutic effect”. In data set [3], the “I pH (initial pH), 0.10%” value was “P (a Pass initial pH corresponds to the pH being at or between 5.5-6.5)”; the “I pH (initial pH), 0.50%” value is recorded as “P (a Pass initial pH corresponds to the pH being at or between 5.5-6.5)”; the “I pH (initial pH), 1.00%” value is given as “P (a Pass initial pH corresponds to the pH being at or between 5.5-6.5)”.
As to `c1cncnc1` [Pyrimidine], in data set [2], the “Therapeutic Efficacy Results (Lactobacillus/E. coli) 0.10%” value turned out to be 245, the “Therapeutic Efficacy Results (Lactobacillus/E. coli) 0.50%” value is on record as >4760 and the “Therapeutic Efficacy Results (Lactobacillus/E. coli) 1.00%” value is on record as 4.05. Also, in data set [2] (with α methyl-D glucoside, nitrogen compound 1 wt/vol %, 0.5 wt/vol % and 0.1 wt/vol %), the “Therapeutic effect (ratio of Lactobacillus to E. coli greater than 2) at each concentration tested” value is on record as “provided a therapeutic effect”. Further, the “Therapeutic effect when ratio α methyl-D glucoside : nitrogen compound is less than 2:1 (1:1)” value in data set [2] (with α methyl-D glucoside, ratio 1:1) is reported as “provided a therapeutic effect”. For the same compound, in data set [3], the “I pH (initial pH), 0.10%” value is on record as “P (a Pass initial pH corresponds to the pH being at or between 5.5-6.5)”; the “I pH (initial pH), 0.50%” value was “P (a Pass initial pH corresponds to the pH being at or between 5.5-6.5)”; the “I pH (initial pH), 1.00%” value is reported as “P (a Pass initial pH corresponds to the pH being at or between 5.5-6.5)”.
For `O=c1cc[nH]c(=O)[nH]1` [Uracil], in data set [2], the “Therapeutic Efficacy Results (Lactobacillus/E. coli) 0.10%” value came out at 0.43. In addition, in data set [1], the “Solubility of the composition, 0.50%” value is given as “Insol” and the “Solubility of the composition, 1.00%” value is on record as “Insol”. Also, in data set [3], the “I pH (initial pH), 0.10%” value is listed as “P (a Pass initial pH corresponds to the pH being at or between 5.5-6.5)”.
